Measured values from ChEMBL document CHEMBL1275379, “Indazolylpyrazolopyrimidine as highly potent B-Raf inhibitors with in vivo activity” (J Med Chem, 2010).
Active and inactive are the calls of the source. The rule behind the calls is not given here.

What was measured:
[1] = biological target: Serine/threonine-protein kinase B-raf (Homo sapiens, UniProt P15056); assay: Inhibition of BRAF
A-375 = assay: Growth inhibition of human A375 cells after 4 days by MTT assay; assay type: functional, cell-based; details: A-375, 96 h
[2] = Half life in human liver microsomes; assay type: ADME, Microsome
[3] = Half life in nude mouse liver microsomes; assay type: ADME, Microsome
[4] = tested on: Serine/threonine-protein kinase B-raf (Homo sapiens), P15056 [V600E]; assay: Inhibition of BRAF V600E mutant in human A375 cells assessed as reduction of ERK phosphorylation; assay type: cell-based; details: A-375
Sequence of Serine/threonine-protein kinase B-raf (Homo sapiens), P15056 [V600E] (P15056 whole entry V600E): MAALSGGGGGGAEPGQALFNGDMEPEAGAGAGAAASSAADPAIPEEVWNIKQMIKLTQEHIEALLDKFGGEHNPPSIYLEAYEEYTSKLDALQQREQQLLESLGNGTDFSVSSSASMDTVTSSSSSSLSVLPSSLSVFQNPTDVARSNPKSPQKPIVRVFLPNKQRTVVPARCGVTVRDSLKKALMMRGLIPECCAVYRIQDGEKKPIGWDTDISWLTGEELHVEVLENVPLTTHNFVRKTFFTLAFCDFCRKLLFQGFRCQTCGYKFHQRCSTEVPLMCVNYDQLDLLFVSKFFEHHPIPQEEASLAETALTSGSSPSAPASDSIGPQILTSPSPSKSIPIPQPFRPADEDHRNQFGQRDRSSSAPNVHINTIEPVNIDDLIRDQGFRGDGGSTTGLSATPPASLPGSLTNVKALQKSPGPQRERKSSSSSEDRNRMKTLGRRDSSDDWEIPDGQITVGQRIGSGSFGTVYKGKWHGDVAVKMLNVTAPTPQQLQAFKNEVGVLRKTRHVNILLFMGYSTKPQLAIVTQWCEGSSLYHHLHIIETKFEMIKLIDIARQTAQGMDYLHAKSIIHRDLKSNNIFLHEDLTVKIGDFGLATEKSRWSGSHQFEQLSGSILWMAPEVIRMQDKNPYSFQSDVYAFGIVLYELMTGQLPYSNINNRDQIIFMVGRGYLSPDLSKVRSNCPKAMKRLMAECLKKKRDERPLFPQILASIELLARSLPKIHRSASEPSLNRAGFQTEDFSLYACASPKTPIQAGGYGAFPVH

Sequence of Serine/threonine-protein kinase B-raf (P15056 whole entry): as the sequence (P15056 whole entry V600E) above, with E600V counted along it

Row | SMILES | IC50 [1] [nM] | IC50 (A-375) [nM] | half-life [2] [min] | half-life [3] [min] | inhibition [4]
1 | Fc1cc(CN2C[C@@H]3C[C@H]2CO3)ccc1-c1ccnc2c(-c3cccc4[nH]ncc34)c(-c3ccncc3)nn12 | 1.2 | 268 |  |  | 
2 | CN1C[C@@H]2C[C@H]1CN2c1ccc(-c2ccnc3c(-c4cccc5[nH]ncc45)c(-c4ccncc4)nn23)c2ccccc12 | 1 | 25000 |  |  | 
3 | c1cc(-c2c(-c3ccncc3)nn3c(-c4ccc(CN5C[C@@H]6C[C@H]5CN6)cc4)ccnc23)c2cn[nH]c2c1 | 2.3 | 9480 |  |  | 
4 | CN1C[C@@H]2C[C@H]1CN2c1ccc(-c2ccnc3c(-c4cccc5[nH]ncc45)c(-c4ccncc4)nn23)c(Br)c1 | < 0.32 |  |  |  | 
5 | CN1C[C@@H]2C[C@H]1CN2c1ccc(-c2ccnc3c(-c4cccc5[nH]ncc45)c(-c4ccncc4)nn23)cc1 | 1.2 | 202 |  |  | 
6 | CN1C[C@@H]2C[C@H]1CN2c1cc(F)c(-c2ccnc3c(-c4cccc5[nH]ncc45)c(-c4ccncc4)nn23)cc1F | 0.38 | 87 |  |  | 
7 | CN1C[C@@H]2C[C@H]1CN2c1c(F)cc(-c2ccnc3c(-c4cccc5[nH]ncc45)c(-c4ccncc4)nn23)cc1F |  | 1250 |  |  | 
8 | CN1C[C@@H]2C[C@H]1CN2c1cccc(-c2ccnc3c(-c4cccc5[nH]ncc45)c(-c4ccncc4)nn23)c1 |  | 1400 |  |  | 
9 | CC(C)CN1C[C@@H]2C[C@H]1CN2c1cc(F)c(-c2ccnc3c(-c4cccc5[nH]ncc45)c(-c4ccncc4)nn23)c(F)c1 | < 0.32 | 89 | 3 | 4 | 
10 | CN(C)c1cc(N2C[C@@H]3C[C@H]2CN3C)ccc1-c1ccnc2c(-c3cccc4[nH]ncc34)c(-c3ccncc3)nn12 |  | 1850 |  |  | 
11 | Fc1cc(CN2C[C@H]3C[C@@H]2CO3)ccc1-c1ccnc2c(-c3cccc4[nH]ncc34)c(-c3ccncc3)nn12 | 0.52 | 78 |  |  | 
12 | CN1C[C@@H]2CC[C@H]1CN2c1ccc(-c2ccnc3c(-c4cccc5[nH]ncc45)c(-c4ccncc4)nn23)c(F)c1 | 0.41 | 118 |  |  | 
13 | Fc1cc(CN2C3COCC2COC3)ccc1-c1ccnc2c(-c3cccc4[nH]ncc34)c(-c3ccncc3)nn12 | 0.77 | 304 |  |  | 
14 | Fc1cc(N2C[C@@H]3C[C@H]2CN3C2CCC2)cc(F)c1-c1ccnc2c(-c3cccc4[nH]ncc34)c(-c3ccncc3)nn12 | < 0.32 | 78 | 3 | 5 | 
15 | CN1C[C@@H]2C[C@H]1CN2c1ccc(-c2ccnc3c(-c4cccc5[nH]ncc45)c(-c4ccncc4)nn23)c(Cl)c1 | < 0.1 | 39 |  |  | 
16 | Cc1cc(N2C[C@@H]3C[C@H]2CN3C)ccc1-c1ccnc2c(-c3ccc(F)c4[nH]ncc34)c(-c3ccncc3)nn12 | < 0.32 | 188 |  |  | 
17 | CN1C[C@@H]2C[C@H]1CN2c1ccc(-c2ccnc3c(-c4ccc(F)c5[nH]ncc45)c(-c4ccncc4)nn23)cc1 | 0.5 | 68 |  |  | 
18 | CN1C[C@@H]2CC[C@H]1CN2c1ccc(-c2ccnc3c(-c4cccc5[nH]ncc45)c(-c4ccncc4)nn23)cc1 | 0.71 | 185 |  |  | 
19 | c1cc(-c2c(-c3ccncc3)nn3c(-c4ccc(CN5C[C@@H]6C[C@H]5CO6)cc4)ccnc23)c2cn[nH]c2c1 |  | 945 |  |  | 
20 | CCN1C[C@@H]2C[C@H]1CN2c1cc(F)c(-c2ccnc3c(-c4cccc5[nH]ncc45)c(-c4ccncc4)nn23)c(F)c1 | < 0.32 | 56 | 11 |  | 
21 | CN1C[C@@H]2C[C@H]1CN2c1ccc(-c2ccnc3c(-c4ccc(F)c5[nH]ncc45)c(-c4ccncc4)nn23)c(F)c1 | < 0.1 | 33 |  |  | 
22 | CN1C[C@@H]2C[C@H]1CN2c1ccc(-c2ccnc3c(-c4cccc5[nH]ncc45)c(-c4ccncc4)nn23)c(F)c1 | 0.23 | 44 | 17 | > 30 | Active
23 | CC(C)N1C[C@@H]2C[C@H]1CN2c1cc(F)c(-c2ccnc3c(-c4cccc5[nH]ncc45)c(-c4ccncc4)nn23)c(F)c1 | < 0.32 | 55 | 5 | 17 | 
24 | Cc1cc(N2C[C@@H]3C[C@H]2CN3C)ccc1-c1ccnc2c(-c3cccc4[nH]ncc34)c(-c3ccncc3)nn12 | 0.51 | 137 |  |  | 
25 | CN1C[C@@H]2C[C@H]1CN2c1ccc(-c2ccnc3c(-c4cccc(O)c4)c(-c4ccncc4)nn23)cc1 |  | 77 |  |  | Active
26 | CN1C[C@@H]2C[C@H]1CN2c1c(F)c(F)c(-c2ccnc3c(-c4cccc5[nH]ncc45)c(-c4ccncc4)nn23)c(F)c1F | 0.35 | 70 |  |  | 
27 | CN1C[C@@H]2C[C@H]1CN2c1ccc(-c2ccnc3c(-c4cccc5[nH]ncc45)c(-c4ccncc4)nn23)c(F)c1F | 0.61 | 107 |  |  | 
28 | CN1C[C@@H]2C[C@H]1CN2c1ccc(-c2ccnc3c(-c4cccc5[nH]ncc45)c(-c4ccncc4)nn23)cc1C(F)(F)F |  | 273 |  |  | 
29 | CN1C[C@@H]2C[C@H]1CN2c1cc(F)c(-c2ccnc3c(-c4ccc(F)c5[nH]ncc45)c(-c4ccncc4)nn23)c(F)c1 | 0.11 | 17 |  |  | 
